Data on 1 compound can be found in patent US20050033056A1, “Hydroxylated indole derivatives and uses thereof” (priority 2001, published 2005).

For one series, the target named is 5-HT2 receptor. The conditions noted are these: background statement, see WO 98/43956 and EP 0 976 732 A1; cited from earlier work.
Series [1] deals with primary culture of human hepatocytes. Description: Morphology of primary human hepatocytes during treatment. The series is classed as cell-based. The conditions noted are these: cells exposed to Compound 1 compared with control cells. On the procedure:
Upon receiving a primary culture of human hepatocytes in 6-well plates, the culture medium containing streptomycin/penicillin was refreshed (2 ml/well). […] Compound 1 stock solution was added to the culture medium at a 1:400 ratio (v/v). The culture medium and testing compounds were replenished every 24 hours.

In a further series the target is CYP3A4 (Homo sapiens, UniProt P08684). Description: CYP inhibition in HLM: R-warfarin 10-hydroxylation. The format is in vitro ADME. Also noted: tissue Gentest Corp. (Woburn, Mass.); host or cells: pooled human liver microsomes. To be noted: 10 or 50 μM. On the procedure: (§1) The incubations were carried out in test tubes (12.0×75 mm). The incubation mixtures (250 μL) contained 0.5 mg of HLM protein, 50 (CYP1A2 and CYP2E1) or 25 (CYP2C9, CYP2C19, CYP2D6 and CYP3A4) pmol of recombinant human CYPs, Compound 1 (10 or 50 μM), probe substrate (R—, S-warfarin, chlorzoxazone, S-mephenyloin, or bufuralol) at different concentrations, and 0.5 mg of NADPH in 50 mM Tris buffer containing 15 mM MgCl2 (pH 7.4). Compound 1 was added to the reaction mixture 5 minutes prior to the addition of the probe substrate. […]
Sequence of CYP3A4 (P08684 whole entry): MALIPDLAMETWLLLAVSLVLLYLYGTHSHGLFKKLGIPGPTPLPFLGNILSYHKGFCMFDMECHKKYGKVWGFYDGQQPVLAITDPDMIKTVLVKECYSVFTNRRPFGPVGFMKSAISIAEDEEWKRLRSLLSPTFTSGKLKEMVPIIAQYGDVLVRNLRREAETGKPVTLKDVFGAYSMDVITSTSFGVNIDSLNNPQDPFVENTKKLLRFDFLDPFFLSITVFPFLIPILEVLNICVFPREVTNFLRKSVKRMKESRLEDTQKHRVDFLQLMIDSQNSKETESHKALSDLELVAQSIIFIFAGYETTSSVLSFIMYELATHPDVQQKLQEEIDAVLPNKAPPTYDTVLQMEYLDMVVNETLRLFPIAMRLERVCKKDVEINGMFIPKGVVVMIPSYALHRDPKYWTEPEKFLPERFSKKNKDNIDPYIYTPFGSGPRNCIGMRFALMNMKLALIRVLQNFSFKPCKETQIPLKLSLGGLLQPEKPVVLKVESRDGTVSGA
(§2) The quantification was based on the calibration curves, and the quality control (QC) samples were applied to ensure the quality of the experiments. […]
(§3) 1. CYP1A2/2C9/3A4-mediated warfarin 6-, 7-, 8-, and 10-hydroxylation (Zhang et al., Drug Metab. Dispos. 23:1339-1346, 1995; Rettie et al., Chem. Res. Toxicol. 5:54-59, 1992; Brian et al., Biochemistry 29:11280-11292, 1990): Hewlett Packard 1100 HPLC system (Waldbronn, Germany) comprised a binary pump, an autosampler, a column compartment unit, a photodiode array detector (PDA), and a fluorescence detector. […] The warfarin metabolites, 6-, 8-, and 10-hydroxywarfarin, were monitored by UV at 313 nm, and 7-hydroxywarfarin by fluorescence at Ex320 nm/Em380 nm. […]

The target of the next series is T1, CYP1A2 (Homo sapiens, UniProt P05177).
T1 construct: tissue Gentest Corp. (Woburn, Mass.); host or cells: pooled human liver microsomes
T1 sequence (P05177 1-516): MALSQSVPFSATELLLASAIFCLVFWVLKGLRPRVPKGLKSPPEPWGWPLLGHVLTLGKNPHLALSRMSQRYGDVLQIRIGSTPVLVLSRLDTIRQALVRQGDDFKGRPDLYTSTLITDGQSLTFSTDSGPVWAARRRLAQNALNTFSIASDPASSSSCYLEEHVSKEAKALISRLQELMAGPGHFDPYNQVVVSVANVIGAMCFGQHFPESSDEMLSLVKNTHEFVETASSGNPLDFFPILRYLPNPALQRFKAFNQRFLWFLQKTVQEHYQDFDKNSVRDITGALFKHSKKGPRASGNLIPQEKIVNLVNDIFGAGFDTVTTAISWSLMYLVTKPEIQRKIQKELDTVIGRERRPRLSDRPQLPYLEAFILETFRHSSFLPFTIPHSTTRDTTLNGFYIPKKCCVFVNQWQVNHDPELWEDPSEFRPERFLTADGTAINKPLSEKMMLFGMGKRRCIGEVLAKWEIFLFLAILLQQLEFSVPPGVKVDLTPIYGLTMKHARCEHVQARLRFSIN
Nature of the series: CYP inhibition in HLM: R-warfarin 6-hydroxylation. The conditions noted are these: 10 or 50 μM. The format is in vitro ADME. On the procedure: as §1, §2, §3

Turning to `CNC(=O)Cc1ccc2ccn(C3CCN(CCc4ccccc4F)CC3)c2c1` [Compound 1, N-methyl-[1-[1-(2-fluorophenethyl)piperidine-4-yl]-1H-indol-6-yl] acetamide], the “IC50, binding to 5-HT2 receptor” value at 5-HT2 receptor is on record as “low nanomolar”. Moreover, the “morphologic changes of hepatocytes” value in series [1] was “marked morphologic changes were not observed”. The “inhibitory effect on CYP3A4 activity (in words)” value on CYP3A4 is “no inhibitory effect”. Further, the “inhibitory effect on CYP1A2 activity (in words)” value on CYP1A2 is “no inhibitory effect”.
